Source: publication PMC7139549, “TLD1433 Photosensitizer Inhibits Conjunctival Melanoma Cells in Zebrafish Ectopic and Orthotopic Tumour Models” (Cancers, 2020)

Experiments:
CM cells = test: SRB cell viability assay, CM cells; format: cell-based, Human; settings: dark EC50 to light EC50
Method: TLD1433 is known to generate reactive oxygen species (ROS) with high quantum efficacy in many cancer cell lines. However, there is no report of the in vitro toxicity of this compound in eye melanoma (UM) cell lines. We determined the cell viability of three conjunctival melanoma cell lines (CRMM1, CRMM2 and CM2005.1), and three uveal melanoma cell lines (OMM1, OMM2.5, MEL270) in the presence of TLD1433, both in the dark or under green light irradiation (21 mW/cm^2, 19 J/cm^2, 520 nm, 15 min), and compared this viability to epidermoid carcinoma A431 and cutaneous melanoma A375 cell lines under the same conditions. […] The phototoxicity index (PI), defined as the ratio of the dark EC50 to the light EC50, was also calculated and represents the amplification of TLD1433 activity with a light trigger. […]
At day 0, cells were detached using 1mL of trypsin, resuspended in 4 mL of media and transferred to a 15 mL corning falcon tube. Cells were counted using trypan blue and BioRad® TC20™ automated cell counter (Figure 11). Dilutions of 6000 (CRMM1), 6000 (CRMM2), 8000 (CM2005.1), 6000 (OMM1), 6000 (OMM2.5), 6000 (MEL270) 8000 (A431), and 4000 (A375) cells/well were calculated from each cell suspension at a final volume of 6 mL using the following formula: Vc=(Vt×10C)/Lc where Vt = total volume of solution, C = number of cells per well/per 100 μL and Lc = live cells count (cells/mL). […]

[1] = system: CRMM2 engrafted cells in zebrafish orthotopic model; test: In situ TUNEL assay, CRMM2 orthotopic zebrafish model; format: in vivo, Zebrafish (Danio rerio); settings: RO 2.3 mM
Method: In situ TUNEL assay on fixed embryos was used to detect TLD1433 induced apoptosis in zebrafish CRMM1 and CRMM2 orthotopic tumour models at 4 dpi after light activation of 2.3 mM TLD1433, administrated by retro orbital injection. The DNA strand breaks in apoptotic tumour cells were stained with fluorescein and visualized as a green signal.
Figure 10 TUNEL assay of in CRMM1 and CRMM2 orthotopic model after RO of TLD1433. Red fluorescent CRMM1 (A) and CRMM2 (B) cells were injected at 2dpf behind the ZF eye and divided into four groups for drug treatment. RO administration of vehicle control and TLD1433 was performed as described in Figure 9C,E. After dark or light exposure (21 mW/cm^2, 114 J.cm^−2, 520 nm) embryos were fixed and TUNEL staining was performed. Representative images of embryos are shown in this figure. (A,B) In TLD1433 light groups nuclear DNA fragmentation by nucleases is detected by co-localization of green (DNA fragments) and red signal of engrafted CM cells, depicted as yellow signal and marked by white arrows. In control dark, control light, TLD1433 dark, there are no positive green apoptotic tumour cells observed. […] Experiment was performed 3 times with a group size of 10 embryos.
The zebrafish larvae were fixed overnight with 4% PFA at 4 °C. Embryos were washed in PBST for 5 min and dehydrated by a graded methanol series until reaching 100% methanol. […]

Cc1ccnc(-c2cc(C)ccn2)c1.Cc1ccnc(-c2cc(C)ccn2)c1.[Cl-].[Cl-].[Ru+2].c1csc(-c2ccc(-c3ccc(-c4nc5c6cccnc6c6ncccc6c5[nH]4)s3)s2)c1 [TLD1433]
PI (CM cells): > 140 | TUNEL apoptosis of engrafted cells (in words) ([1]; dark, 4 dpi): no positive green signal detected | TUNEL apoptosis of engrafted cells (in words) ([1]; light 114 J.cm^−2, 4 dpi): induced CRMM1 and CRMM2 cell apoptosis
